Key:
Assay type in all cases: biochemical
[1] = molecular target: T1, monkey testicular C17-20 lyase (Macaca fascicularis, UniProt Q2XVA1); test: inhibition of cynomolgus monkey testicular C17-20 lyase (microsomes), with or without preincubation; details: for inhibition at 0.1 µM / inhibition at 1 µM: cynomolgus monkey testicular lyase; for inhibition at 0.1 µM: concentration 0.1 μM; for inhibition at 1 µM: concentration 1 μM
T1 construct: microsomal preparations of the enzyme from rat or cynomolgus monkey testicular tissue; from tissue; host or cells: cynomolgus monkey testicular tissue, microsomes
T1 sequence (Q2XVA1 1-508): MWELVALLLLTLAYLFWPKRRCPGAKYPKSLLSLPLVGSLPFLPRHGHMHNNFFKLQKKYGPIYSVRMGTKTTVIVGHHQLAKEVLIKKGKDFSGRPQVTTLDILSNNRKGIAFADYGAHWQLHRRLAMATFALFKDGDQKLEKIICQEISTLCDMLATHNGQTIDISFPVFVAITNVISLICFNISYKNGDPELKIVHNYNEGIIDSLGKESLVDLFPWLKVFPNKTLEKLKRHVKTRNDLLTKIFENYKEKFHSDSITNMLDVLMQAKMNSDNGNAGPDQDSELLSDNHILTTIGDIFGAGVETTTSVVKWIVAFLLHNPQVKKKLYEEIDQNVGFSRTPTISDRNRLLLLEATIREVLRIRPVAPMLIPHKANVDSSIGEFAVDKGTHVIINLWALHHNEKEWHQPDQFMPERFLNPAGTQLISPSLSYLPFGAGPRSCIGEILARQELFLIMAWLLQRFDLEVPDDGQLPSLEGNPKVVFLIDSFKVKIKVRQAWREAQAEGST
Description: (§1) The in vitro enzymatic inhibitory activity of the present compounds as inhibitors of steroid C17-20 lyase was established using microsomal preparations of the enzyme from rat or cynomolgus monkey testicular tissue. Microsomes were isolated from cynomolgus monkey or rat testicular tissue. The compound to be tested was dissolved in dimethyl sulfoxide and diluted in 0.05M potassium phosphate buffer, (pH 7.4 for cynomolgus monkey lyase activity and pH 7.2 for rat lyase activity) to give the desired concentrations of test compound. The final assay concentration of DMSO was 0.1% (v/v). Assays contained an NADPH regenerating system comprised of […], 5 mM glucose-6-phosphate, 1 IU/mL glucose-6-phosphate dehydrogenase and microsomal protein in a total volume of 0.2 mL.
For determination of time dependent C17-20 lyase inactivation, the test compound was incubated with 20 to 62 μg/mL microsomal protein, 0.05 M potassium phosphate buffer, pH 7.4, and the NADPH regenerating system described above at 34° C. for 0 to 40 minutes. Aliquots of 180 μL were then removed and assayed for enzyme activity. Each aliquot was added to [7-^3 H]-17α-hydroxypregnenolone (11.2 mCi/mmole; 0.2 μCi per assay) plus unlabeled 17α-hydroxypregnenolone to give a total substrate concentration of 0.3 μM per assay and subsequently incubated for 6 minutes at 34° C. For determination of reversible inhibition by the test compound, the reaction was initiated by the addition of substrate and inhibitor (or DMSO in buffer for controls) simultaneously to the other assay components. The substrate used for cynomolgus monkey lyase was 7-^3 H-17α-hydroxypregnenolone, which yielded a final concentration of 0.3 μM substrate. […] The complete assay was incubated at 34° C. for 6 minutes for both rat and monkey lyase.
Each assay was terminated by addition of 5 mL of chloroform:methanol (2:1). Carrier steroid (2.5 μg each) representing substrates and products and 0.8 mL of distilled, deionized water were then added to each assay. Carrier steroids for the lyase assays were 17α-hydroxy-pregnenolone,dehydroepiandrosterone, and androst-5-ene-3β,17β-diol (cynomolgus monkey lyase assays) or 17α-hydroxyprogesterone, androstenedione, and testosterone (rat lyase assays). Testosterone, dihydrotestosterone, and 3,17-androstanediol were added to the 5α-reductase assays as carrier steroids. Radiolabeled and unlabeled steroid were extracted by the method of Moore and Wilson (Methods in Enzymol., eds. O'Malley, B. W. and Hardlan, J. G. 36, 1975, pp. 466-473). The organic phase containing the steroids was evaporated using nitrogen gas. For lyase assays, the residues dissolved in 18% tetrahydrofuran (v/v) in hexane. For 5α-reductase assays, the dried steroid residues were dissolved in 3% (v/v) isopropanol in hexane. the steroids were then separated by normal phase HPLC on a LiCrosorb® DIOL derivatized silica gel column (10 μm; 4×250 mm) with a 3% to 7.5% isopropanol in hexane gradient, followed by isocratic conditions of […] isopropanol in hexane. Radioactivity in the steroid peaks was measured using a Radiomatic® Model HS or Model A515 Flo-One detector for both lyase and 5α-reductase assays.
The enzyme activity for each assay was calculated from the percent conversion of substrate to products, and the results were expressed as percent inhibition of control. The data from these experiments were fitted into the appropriate two parameter model incorporating six concentrations of inhibitor to determine an IC50 value. […] When the compounds were tested using the above procedures with cynomolgus monkey testicular lyase, the following results were obtained: […]

[2] = molecular target: T2, rat testicular C17-20 lyase (Rattus norvegicus, UniProt P11715); test: inhibition of rat testicular C17-20 lyase (microsomes)
T2 construct: microsomal preparations of the enzyme from rat or cynomolgus monkey testicular tissue; from tissue; host or cells: rat testicular tissue, microsomes
T2 sequence (P11715 1-507): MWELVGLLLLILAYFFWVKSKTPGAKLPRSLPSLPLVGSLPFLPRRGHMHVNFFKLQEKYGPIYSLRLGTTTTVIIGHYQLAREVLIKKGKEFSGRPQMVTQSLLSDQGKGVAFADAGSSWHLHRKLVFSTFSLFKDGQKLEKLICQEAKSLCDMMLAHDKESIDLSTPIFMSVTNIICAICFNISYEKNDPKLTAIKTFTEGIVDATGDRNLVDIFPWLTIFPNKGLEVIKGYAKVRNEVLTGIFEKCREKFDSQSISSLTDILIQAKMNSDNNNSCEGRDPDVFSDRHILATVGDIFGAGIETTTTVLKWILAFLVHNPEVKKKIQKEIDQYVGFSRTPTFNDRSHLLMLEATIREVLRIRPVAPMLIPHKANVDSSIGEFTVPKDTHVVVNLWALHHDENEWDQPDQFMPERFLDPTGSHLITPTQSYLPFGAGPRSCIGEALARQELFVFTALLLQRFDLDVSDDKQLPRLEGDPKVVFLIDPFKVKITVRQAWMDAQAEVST
Description: as §1, with “mL. […]” for “mL.”
(§2) Each assay was terminated by addition of 5 mL of chloroform:methanol (2:1). […] Radioactivity in the steroid peaks was measured using a Radiomatic® Model HS or Model A515 Flo-One detector for both lyase and 5α-reductase assays.
(§3) The enzyme activity for each assay was calculated from the percent conversion of substrate to products, and the results were expressed as percent inhibition of control. […]

[3] = molecular target: T3, prostatic monkey 5α-reductase (Macaca fascicularis, UniProt Q28892); test: inhibition of cynomolgus monkey prostatic 5α-reductase (microsomes)
T3 construct: microsomes were isolated from cynomolgus monkey prostate tissue; from tissue; host or cells: cynomolgus monkey prostate tissue, microsomes
T3 sequence (Q28892 1-254): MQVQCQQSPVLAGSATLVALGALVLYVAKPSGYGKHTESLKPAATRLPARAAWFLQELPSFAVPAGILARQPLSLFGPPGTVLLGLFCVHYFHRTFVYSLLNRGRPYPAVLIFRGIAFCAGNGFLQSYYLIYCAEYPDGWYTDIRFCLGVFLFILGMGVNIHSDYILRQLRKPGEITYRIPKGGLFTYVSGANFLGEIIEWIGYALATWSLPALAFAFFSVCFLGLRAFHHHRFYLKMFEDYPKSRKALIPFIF
Description: The activity of the present compounds as inhibitors of steroid 5α-reductase was determined using microsomal preparations of the 5α-reductase enzyme from laboratory animal prostate tissue. Specifically, microsomes were isolated from cynomolgus monkey prostate tissue. Protein concentration of the microsomal preparations was determined prior to use of the samples. […] Background radioactivity was determined from assays containing all components except enzyme. […]
as §2, §3

[4] = preincubation time 40 (minutes)

Compound	inhibition at 0.1 µM ([1]; preincubation time 0 (minutes))	inhibition at 1 µM ([1]; preincubation time 0 (minutes))	inhibition at 0.1 µM [1, 4]	inhibition at 1 µM [1, 4]	IC50 ([1]; cynomolgus monkey testicular microsomes, substrate 0.3 μM 17α-hydroxypregnenolone, 34° C.)	IC50 ([2]; rat testicular microsomes, substrate 0.1 μM 17α-hydroxyprogesterone, pH 7.2, 34° C.)	IC50 [3]	Km ([2]; substrate Km, rat lyase activity)
C[C@]12CC[C@H]3[C@@H](CCC4=C([N+](=O)[O-])C(=O)CC[C@@]43C)[C@@H]1CC[C@@H]2OC1CC1 [17β-cyclopropyloxy-4-nitroandrost-4-en-3-one]	36%	78%	79%	95%				
C[C@H](CS)[C@H]1CC[C@H]2[C@@H]3CCC4=C([N+](=O)[O-])C(=O)CC[C@]4(C)[C@H]3CC[C@]12C [(20S)-20-mercaptomethyl-4-nitropregn-4-en-3-one]	0%	69%	26%	93%				
C[C@H](CO)[C@H]1CC[C@H]2[C@@H]3CCC4=C([N+](=O)[O-])C(=O)CC[C@]4(C)[C@H]3CC[C@]12C [(20S)-20-Hydroxymethyl-4-nitropregn-4-en-3-one]					41 nM	86 nM	17 nM	
CC(=O)[C@@]1(O)CC[C@H]2[C@@H]3CCC4=CC(=O)CC[C@]4(C)[C@H]3CC[C@@]21C [[1,2-^3 H]-17α-hydroxyprogesterone, reference compound]								0.095 µM
